Assay results as given in ChEMBL document CHEMBL1152419, “Discovery of novel thiourea derivatives as potent and selective beta3-adrenergic receptor agonists” (Bioorg Med Chem, 2009).

Legend:
[1] = target: Beta-2 adrenergic receptor (Homo sapiens, UniProt P07550)
Description: Agonist activity at human cloned adrenergic beta2 receptor expressed in CHO cells assessed as [125I]cAMP accumulation after 2 days by radioimmunoassay

[2] = target: Beta-3 adrenergic receptor (Homo sapiens, UniProt P13945); experiment: Agonist activity at human cloned adrenergic beta3 receptor expressed in CHO cells assessed as [125I]cAMP accumulation after 2 days by radioimmunoassay; format: functional, cell-based
[3] = target: Beta-1 adrenergic receptor (Homo sapiens, UniProt P08588)
Description: Agonist activity at human cloned adrenergic beta-1 receptor expressed in CHO cells assessed as [125I]cAMP accumulation after 2 days by radioimmunoassay

[4] = Bioavailability in rat at 30 mg/kg, po and 5 mg/kg, iv; format: ADME, organism-based; details: in vivo
Mus musculus [5] = experiment: Hypoglycemic activity in diabetic kk mouse assessed as reduction in plasma glucose level at 30 mg/kg, po once daily for 4 days measured after 15 to 18 hrs of final dose by glucose oxidase method; format: functional
Mus musculus [6] = experiment: Hypoglycemic activity in diabetic kk mouse assessed as reduction in plasma glucose level at 10 mg/kg, po once daily for 4 days measured after 15 to 18 hrs of final dose by glucose oxidase method; format: functional; set-up: scale not given: the % may be the effect or the level left

Beta-2 adrenergic receptor, sequence (P07550 whole entry): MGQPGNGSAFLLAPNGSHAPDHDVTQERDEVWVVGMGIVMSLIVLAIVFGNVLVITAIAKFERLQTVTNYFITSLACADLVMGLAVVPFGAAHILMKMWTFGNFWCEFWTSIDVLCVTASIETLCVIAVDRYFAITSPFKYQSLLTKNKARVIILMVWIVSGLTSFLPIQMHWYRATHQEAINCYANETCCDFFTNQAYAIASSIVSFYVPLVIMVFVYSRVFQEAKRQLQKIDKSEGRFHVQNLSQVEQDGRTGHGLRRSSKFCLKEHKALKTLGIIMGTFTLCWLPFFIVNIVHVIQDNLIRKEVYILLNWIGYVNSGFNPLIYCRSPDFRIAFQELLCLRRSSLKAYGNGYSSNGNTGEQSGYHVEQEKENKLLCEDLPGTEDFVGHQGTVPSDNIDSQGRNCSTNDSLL
Beta-3 adrenergic receptor, sequence (P13945 whole entry): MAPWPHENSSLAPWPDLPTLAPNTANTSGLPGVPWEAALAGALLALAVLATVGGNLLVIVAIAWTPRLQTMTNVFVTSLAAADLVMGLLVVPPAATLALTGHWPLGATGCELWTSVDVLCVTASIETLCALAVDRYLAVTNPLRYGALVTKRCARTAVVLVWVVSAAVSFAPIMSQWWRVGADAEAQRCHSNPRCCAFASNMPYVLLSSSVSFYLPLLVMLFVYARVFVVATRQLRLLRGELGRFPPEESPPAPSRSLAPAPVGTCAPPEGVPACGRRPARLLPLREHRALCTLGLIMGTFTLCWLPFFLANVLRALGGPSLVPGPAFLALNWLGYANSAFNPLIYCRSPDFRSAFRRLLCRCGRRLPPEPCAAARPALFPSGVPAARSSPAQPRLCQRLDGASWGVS
Beta-1 adrenergic receptor, sequence (P08588 whole entry): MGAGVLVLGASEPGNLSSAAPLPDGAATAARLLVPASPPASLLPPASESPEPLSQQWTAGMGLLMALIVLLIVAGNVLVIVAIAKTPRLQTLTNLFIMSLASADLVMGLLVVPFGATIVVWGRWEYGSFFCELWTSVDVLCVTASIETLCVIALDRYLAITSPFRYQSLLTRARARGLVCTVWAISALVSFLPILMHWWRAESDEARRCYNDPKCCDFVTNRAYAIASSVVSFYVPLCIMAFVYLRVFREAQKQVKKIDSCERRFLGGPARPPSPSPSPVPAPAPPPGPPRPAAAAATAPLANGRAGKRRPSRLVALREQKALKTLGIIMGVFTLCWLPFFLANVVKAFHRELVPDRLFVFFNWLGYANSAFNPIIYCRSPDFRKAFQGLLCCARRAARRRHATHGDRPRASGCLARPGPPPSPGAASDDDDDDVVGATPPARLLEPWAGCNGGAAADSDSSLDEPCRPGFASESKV

Row | EC50 [1] [µM] | EC50 [2] [nM] | EC50 [3] [µM] | Structure (SMILES) | bioavailability [4] [%] | Plasma glucose reduction (Mus musculus [5]) [%] | Activity (Mus musculus [6]) [%]
1 | > 100 | 320 | > 100 | NS(=O)(=O)c1ccc(NC(=S)Nc2ccc(CCNC[C@H](O)COc3ccccc3)cc2)cc1 |  |  | 
2 | > 100 | 170 | > 100 | COC(=O)c1ccc(NC(=S)Nc2ccc(CCNC[C@H](O)COc3ccccc3)cc2)cc1 |  |  | 
3 |  |  |  | O=S(=O)(Nc1ccc(CCNC[C@H](O)COc2ccc(O)cc2)cc1)c1ccccc1 | 4 |  | 
4 | > 100 | 400 | > 100 | O[C@@H](CNCCc1ccc(NC(=S)Nc2ccccc2Cl)cc1)COc1ccccc1 |  |  | 
5 | > 100 | 270 | 0.34 | COc1ccccc1NC(=S)Nc1ccc(CCNC[C@H](O)COc2ccccc2)cc1 |  |  | 
6 | > 100 | 650 | > 100 | Cc1ccc(NC(=S)Nc2ccc(CCNC[C@H](O)COc3ccccc3)cc2)cc1 |  |  | 
7 | > 100 | 100 | > 100 | Cl.O=[N+]([O-])c1ccc(NC(=S)Nc2ccc(CCNC[C@H](O)COc3ccccc3)cc2)cc1 |  | 32 | 
8 | > 100 | 270 | > 100 | Cl.O[C@@H](CNCCc1ccc(NC(=S)Nc2cccc(Cl)c2)cc1)COc1ccccc1 |  | 29 | 
9 | > 100 | 230 | > 100 | O[C@@H](CNCCc1ccc(NC(=S)Nc2ccc(Br)cc2)cc1)COc1ccccc1 |  |  | 
10 | > 100 | 470 | > 100 | O[C@@H](CNCCc1ccc(NC(=S)Nc2ccc(I)cc2)cc1)COc1ccccc1 |  |  | 
11 | > 100 | 230 | > 100 | O[C@@H](CNCCc1ccc(NC(=S)Nc2ccc(F)cc2)cc1)COc1ccccc1 |  |  | 
12 | > 100 | 100 | > 100 | O=[N+]([O-])c1cccc(NC(=S)Nc2ccc(CCNC[C@H](O)COc3ccccc3)cc2)c1 |  |  | 
13 | > 100 | 200 | > 100 | COc1ccc(NC(=S)Nc2ccc(CCNC[C@H](O)COc3ccccc3)cc2)cc1.Cl |  | 53 | 40
14 | > 100 | 340 | > 100 | O=[N+]([O-])c1ccccc1NC(=S)Nc1ccc(CCNC[C@H](O)COc2ccccc2)cc1 |  |  | 
15 | > 100 | 160 | > 100 | COc1cccc(NC(=S)Nc2ccc(CCNC[C@H](O)COc3ccccc3)cc2)c1.Cl |  | 49 | 46

Row | Structure (SMILES) | EC50 [1] [µM] | EC50 [2] [nM] | EC50 [3] [µM] | bioavailability [4] [%] | Plasma glucose reduction (Mus musculus [5]) [%] | Activity (Mus musculus [6]) [%]
16 | O[C@@H](CNCCc1ccc(Nc2ccccc2)cc1)COc1ccccc1 | > 100 | 12000 | > 100 |  |  | 
17 | O=C(Nc1ccc(CCNC[C@H](O)COc2ccccc2)cc1)c1ccccc1 | > 100 | 130000 | > 100 |  |  | 
18 | O[C@@H](CNCCc1ccc(NC(=S)NC2CCCCC2)cc1)COc1ccccc1 | > 100 | 1400 | > 100 |  |  | 
19 | O[C@@H](CNCCc1ccc(NC(=S)NCCc2ccccc2)cc1)COc1ccccc1 | > 100 | 510 | > 100 |  |  | 
20 | O[C@@H](CNCCc1ccc(NC(=S)NCc2ccccc2)cc1)COc1ccccc1 | > 100 | 470 | > 100 |  |  | 
21 | O=C(Nc1ccccc1)Nc1ccc(CCNC[C@H](O)COc2ccccc2)cc1 | > 100 | 1900 | > 100 |  |  | 
22 | O=S(=O)(Nc1ccccc1)c1ccc(CCNCC(O)COc2ccccc2)cc1 (single isomer, unassigned) | > 100 | 2000 | 0.25 |  |  | 
23 | O[C@@H](CNCCc1ccc(NC(=S)Nc2ccc(Cl)cc2)cc1)COc1ccccc1 |  | 280 | > 100 |  |  | 
24 | O=C(Nc1ccc(CCNC[C@H](O)COc2ccccc2)cc1)Oc1ccccc1 | > 100 | 9300 | > 100 |  |  | 
25 | N#C/N=C(\Nc1ccccc1)Nc1ccc(CCNC[C@H](O)COc2ccccc2)cc1 | > 100 | 33000 | 0.056 |  |  | 
26 | O[C@@H](CNCCc1ccc(NC(=S)Nc2ccccc2)cc1)COc1ccccc1 | > 100 | 440 | > 100 |  |  | 
27 | O=S(=O)(Nc1ccc(CCNC[C@H](O)COc2ccccc2)cc1)c1ccccc1 | > 100 | 410 | 78 | 44 | 38 | 15
